What was measured:
[1] = Human study: vancomycin in ISF by wearable EAB sensor vs serum; format: in vivo; details: healthy participants, single intravenous infusion 1 gram over 1 hour 40 minutes, ISF measured every 5 minutes
Experimental: These human studies followed vancomycin levels using an EAB sensor (which may also be referred to as the “device”). The device was a self-contained wearable EAB sensor, constructed, having an on-board power supply, electrodes, and electronics, including a microprocessor and BlueTooth™ communications module.
A vancomycin-sensitive EAB sensor was placed onto the participant's upper arm (see FIG. 20), opposite the arm where vancomycin was being infused. The time of device application was recorded. The device was applied 30 minutes (+15 minutes) prior to administering the vancomycin infusion and the device was removed up to 10 hours post-cessation of the infusion.
30 minutes (+15 minutes) post-application of the device, the participant received a single dose of vancomycin as an intravenous infusion (1 gram over 1 hour 40 minutes). The time of administration and completion of infusion was recorded. […]
Square Wave Voltammetry (SWV) was used to interrogate the DNA-based sensor electrodes. […] Use the determined peak currents magnitudes obtained at two different SWV interrogation frequencies (in this case 50 Hz and 300 Hz), when no vancomycin is present and when it is present to calculate an analyte concentration responsive signal(S). • 4. […]

[2] = target: DNA-aptamer for vancomycin; assay: Titration curve of vancomycin EAB sensor by square-wave voltammetry, dissociation constant of the aptamer; format: binding
Experimental: Each combination of electrode/matrix was electrochemically interrogated via square-wave voltammetry to obtain two set of data: • A frequency map, where the signal-on and signal-off frequencies were determined for a particular amplitude. • A titration curve, where the sensor is interrogated at several concentrations of vancomycin by using the optimal signal-on frequency (responsible for the sensing event).
The titration curve also allowed determination of the dissociation constant of the aptamer in the employed matrix.
• Estart=between −0.5 and −0.4 V • Efinal=between −0.2 and −0.1 V • Eref=Ag|AgCl
• fix A=optimal amplitude (25 mV for vancomycin-in-vitro) • scan f=optimal signal-on value (between 80 and 100 Hz) and signal-off value (lower than 15 Hz)
Reference is made to FIG. 13 showing response of a vancomycin sensitive microelectrode (d=340 μm) in (i) human serum and (artificial ISF including BSA, and globulin as described above). The following equation describes an isotherm that represents the response of the sensing layer to the presence of different concentrations of vancomycin.
Reference is made to FIG. 17, showing data comparing the use of two different mathematical approaches for obtaining KD, which generated consisting fitting.

CN[C@H](CC(C)C)C(=O)N[C@H]1C(=O)N[C@@H](CC(N)=O)C(=O)N[C@H]2C(=O)N[C@H]3C(=O)N[C@H](C(=O)N[C@H](C(=O)O)c4cc(O)cc(O)c4-c4cc3ccc4O)[C@H](O)c3ccc(c(Cl)c3)Oc3cc2cc(c3O[C@@H]2O[C@H](CO)[C@@H](O)[C@H](O)[C@H]2O[C@H]2C[C@](C)(N)[C@H](O)[C@H](C)O2)Oc2ccc(cc2Cl)[C@H]1O [vancomycin]
vancomycin in the ISF compartment (ISF vs blood) [1]: high variation | KD ([2]; human serum, smaller sensing area (microelectrode d=170 μm), two mathematical approaches): preserved | KD (the dissociation constant of the DNA aptamer) ([2]; microelectrode d=340 μm, synthetic interstitial fluid containing proteins compared with human serum): similar
